Experimental data as given in patent US20240350494A1, “THERAPEUTIC MODULATION OF INTEGRINS” (Pliant Therapeutics, Inc., priority 2021, published 2024).
Entries after “also recorded” stand apart in the source; their conditions may differ.

Tests used:
[1] = tested on: Type I Collagen gene Col1a1 expression; assay: Precision cut lung slices, acute bleomycin exposure, Col1a1 expression; format: cell-based, mice (C57BL/6); conditions: 3 days culture; integrin inhibitors at IC50 for TGF-beta activation; pan-αV and ALK5 inhibitors at 10× reported IC50; FIG. 3A
Protocol: Mice (C57BL/6) were administered 3 U/kg of bleomycin (Teva Pharmaceuticals; North Wales, PA) on day 0 via oropharyngeal aspiration while under anesthesia. On day 14, precision cut lung slices were obtained. Following euthanization, 2% low gelling temp agarose was injected into the mouse lungs via the trachea. […] The lobes were then subjected to precision slicing to obtain samples for culture using a microtome (Compresstome VF-300-OZ, Precisionary; Greenville, NC). Individual slices were distributed in a multiwell culture plate and cultured for 3 days under control (DMSO) and test compound conditions.

lung Col1a1 expression = assay: Precision cut lung slices, chronic bleomycin exposure, Col1a1 expression; format: cell-based, mice (C57BL/6); conditions: 7 days culture
Protocol: (§1) Mice (C57BL/6) were administered 3 U/kg of bleomycin (Teva Pharmaceuticals; North Wales, PA) on Day 0 and 1 U/kg of bleomycin on days 14, 28, 42 and 56 via oropharyngeal aspiration while under anesthesia. At day 70, 14 days after the final bleomycin insult, precision cut lung slices were obtained. Following euthanization, 2% low gelling temp agarose was injected into the mouse lungs via the trachea. […] The lobes were then subjected to precision slicing to obtain samples for culture using a microtome (Compresstome VF-300-OZ, Precisionary; Greenville, NC). Individual slices were distributed in a multiwell culture plate and cultured for 7 days under control (DMSO) and test compound conditions. The viability of the slices over the course of culturing was confirmed by WST-1 assay of mitochondrial activity.
During the culture period, slices in the control group were treated with DMSO and slices in the test group were treated with a DMSO solution of one of: the selective antibody αVβ6 inhibitor 3G9; the αVβ1-selective small molecule inhibitor; a combination of the selective antibody αVβ6 inhibitor 3G9 and the αVβ1-selective small molecule inhibitor; compound 5; and the small molecule ALK5 inhibitor. The selective αVβ1 and αVβ6 integrin inhibitors were analyzed at ≥their respective IC90 concentrations for inhibition of TGF-beta activation. Compound 5 was run at approximate IC50 for inhibition of TGF-beta activation by αVβ6.
as §1, with “following” for “after”
During the culture period, slices in the control group were treated with DMSO and slices in the test group were treated with a DMSO solution of one of: compound 5; nintedanib; pirfenidone; a combination of nintedanib and compound 5; a combination of pirfenidone and compound 5; or the small molecule ALK5 inhibitor. Compound 5 was […] effective to equal or exceed its respective IC50 values at αVβ6 and αVβ1. […] Nintendanib and pirfenidone were analyzed at concentrations 10× their reported therapeutic concentrations.

COL1A1 expression = assay: Precision cut lung slices from human IPF explants, COL1A1 expression; format: cell-based
Description: Explanted lung tissue was obtained from human IPF subjects and inflated with agarose as described in the preceding examples. Biopsy cores were obtained from the agarose-inflated lung tissue. The biopsy cores were subjected to precision slicing to obtain several hundred μm thick. Individual slices were distributed in a multiwell culture plate and cultured for […] under control (DMSO) and test compound conditions. The viability of the slices over the course of culturing was confirmed by WST-1 assay of mitochondrial activity.
PCLS from 5-7 idopathic pulmonary fibrosis (IPF) lung tissue samples were cultured for seven days with one of: DMSO; Compound 5 at 200 nM; nintedanib at 75 nM; pirfenidone at 50 μm; a combination of Compound 5 at 200 nM and nintedanib at 75 nM; a combination of Compound 5 at 200 nM and pirfenidone at 50 μm; or an Alk5 inhibitor at 1 μm. […] FIG. 4D is a bar graph showing relative expression of COL1A1 in precision cut lung slices (PCLS) from idopathic pulmonary fibrosis (IPF) lung tissue upon exposure to Compound 5, clinical standard of care compounds nintedanib (Nin) and pirfenidone (Pirf), and an ALK5 inhibitor, all versus DMSO control.
PCLS from a single IPF lung tissue sample were cultured for seven days with Compound 5 at concentrations of 200 μM, 2 nM, 60 nM, 200 nM, and 1 μM, along with 0.1% DMSO control and an Alk5 inhibitor at 1 μM. […] COL1A1 expression is also graphed for the PCLS in the presence of 0.1% DMSO control, and an Alk5 inhibitor at 1 μM.

[2] = tested on: forced vital capacity (FVC); assay: Phase 2a trial in IPF, forced vital capacity; format: in vivo, human
Description: The exploratory endpoints of the trial measured changes in forced vital capacity (FVC), HRCT-based Quantitative Lung Fibrosis score (QLF), and selected biomarkers over 3 months of treatment.
FIG. 19 illustrates the change in FVC (forced vital capacity) from baseline to Week 12, MMRM Analysis—ITT Population. Change from baseline analyzed using a mixed model for repeated measures with terms for treatment group, SOC (Y/N), visit, baseline value, and treatment-by-visit interaction. An unstructured covariance (UN) structure was used.

## COCCN(CCCCc1ccc2c(n1)NCCC2)CC[C@H](Nc1ncnc2ccccc12)C(=O)O [Compound 5, (S)-4-((2-methoxyethyl)(4-(5,6,7,8-tetrahydro-1,8-naphthyridin-2-yl)butyl)amino)-2-(quinazolin-4-ylamino)butanoic acid]
[1]
  Type I Collagen gene Col1a1 expression, normalized to DMSO control slices: decreased Type I Collagen gene Col1a1 expression substantially
Lung Col1a1 expression; Compound 5 at approximate IC50 (αVβ6), selective inhibitors at ≥IC90, ALK5 inhibitor at 10× IC50, FIG. 3B
  lung Col1a1 expression, normalized to DMSO control slices: decreased lung Col1a1 expression substantially
Lung Col1a1 expression; FIG. 3B
  decrease of lung Col1a1 expression compared with combined 3G9 and αVβ1-selective inhibitor: to a greater extent than combined administration
Lung Col1a1 expression; nintedanib and pirfenidone at 10× therapeutic concentrations, ALK5 inhibitor at 10× IC50, FIG. 4A
  lung slice Col1a1 expression compared to DMSO vehicle control slices: substantial, statistically significant (p<0.01 vs vehicle) decrease
COL1A1 expression; human IPF slices, 3 days, 3G9 ≥400 ng/mL, compound 5 179 nM, ALK5 inhibitor 1 μM, FIG. 4C
  lung Col1a1 expression, normalized to DMSO control slices: substantial, statistically significant (p<0.01 vs vehicle) decrease
COL1A1 expression; single IPF sample, seven days, 200 μM, 2 nM, 60 nM, 200 nM, 1 μM, FIG. 4E
  COL1A1 expression, concentration dependence: dose dependent reduction
[2]; 80 mg QD, 12 weeks
  increase in FVC relative to baseline: +24.6 mL
[2]; 40, 80, 160 mg QD
  treatment effect on FVC versus placebo at 12 weeks: dose-dependent treatment effect
[2]; 40, 80, 160 mg QD, 12 weeks
  proportion of patients experiencing a FVCpp decline of ≥10%, dose dependence: Dose-dependent reduction; also recorded: dose-dependent decrease; also recorded: Dose dependent reduction
[2]; all Compound 5 dose groups, SoC nintedanib or pirfenidone
  treatment effect with and without standard of care therapy: A treatment effect was observed; also recorded: evident with and without use of standard-of-care agents
